Some test systems named below: HCT-15 colon; SF-295 CNS; KM12 colon; NCI-H522 lung; A549 NSCLC; SN12C renal; COLO 205 colon; HS 578T breast; U251 CNS; LOX IMVI melanoma; SK-MEL-5 melanoma; SF-268 CNS; SK-MEL-2 melanoma; NCI-H226 lung; HT29 colon; SNB-19 CNS; PC-3 prostate; CCRF-CEM leukemia; SR leukemia; RPMI-8226 leukemia.
What all share (assay): inhibition of tumour cell growth, NCI panel, 48 h

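Tested at 5 concentrations; 48 h exposure; 96-well plates; endpoints linearly interpolated, else capped at highest concentration. TGI: concentration producing complete growth inhibition.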 Some results are limits rather than exact numbers.

Take `C[n+]1c2ccccc2n2c3ccccc3c(NCc3ccco3)c(C#N)c21`: the TGI in the test on HCT-15 colon was 4.34 µM; with SF-295 CNS, 16.6 µM; in the test on KM12 colon, 22 µM; in the test with NCI-H522 lung, 2.83 µM; with A549 NSCLC it was greater than 100 µM; in the test with SN12C renal, 9.82 µM. In addition, the TGI is 19.9 µM in the test with COLO 205 colon; 10.8 µM in the test with HS 578T breast; 13 µM with U251 CNS; 3.65 µM with LOX IMVI melanoma; 13.7 µM in the test with SK-MEL-5 melanoma; 11.3 µM with SF-268 CNS. Moreover, the TGI in the test on SK-MEL-2 melanoma is 6.51 µM; in the test with NCI-H226 lung, 16 µM; in the test with HT29 colon, greater than 100 µM; in the test on SNB-19 CNS, 26.6 µM; in the test on PC-3 prostate, 22.7 µM.

On to `CC1CN=C(N(C(=O)Nc2ccc(Cl)cc2)c2cccc(Cl)c2)S1` (stereo not drawn), for which the TGI in the test on CCRF-CEM leukemia is greater than 100 µM; with HCT-15 colon, greater than 100 µM; in the test on SF-295 CNS, greater than 100 µM; with KM12 colon, greater than 100 µM; in the test with A549 NSCLC, greater than 100 µM; in the test on SN12C renal it was 83.9 µM. In addition, the TGI in the test with COLO 205 colon is 40.1 µM; in the test with HS 578T breast it was greater than 100 µM; in the test with U251 CNS, greater than 100 µM; with LOX IMVI melanoma, greater than 100 µM; in the test on SK-MEL-5 melanoma, 33.7 µM; with SF-268 CNS, greater than 100 µM. Besides, the TGI is 44.9 µM with SK-MEL-2 melanoma; greater than 100 µM with HT29 colon; greater than 100 µM with SR leukemia; greater than 100 µM in the test with SNB-19 CNS; greater than 100 µM in the test on PC-3 prostate.

Turning to `C[C@H](CCC(=O)O)[C@H]1CC[C@H]2[C@@H]3[C@H](O)[C@H](O)[C@@H]4C[C@H](O)CC[C@]4(C)[C@H]3CC[C@]12C`, the TGI in the test on CCRF-CEM leukemia, with HCT-15 colon, in the test on KM12 colon, in the test on NCI-H522 lung, in the test with A549 NSCLC and in the test on SN12C renal was greater than 100 µM in each case. Also, the TGI in the test on COLO 205 colon, in the test on HS 578T breast, in the test with U251 CNS, in the test with LOX IMVI melanoma, with SF-268 CNS and in the test on SK-MEL-2 melanoma was greater than 100 µM throughout. In addition, the TGI in the test on NCI-H226 lung, in the test with HT29 colon, with SNB-19 CNS, with RPMI-8226 leukemia and with PC-3 prostate was greater than 100 µM each time.

`COP(=O)(/C=C/C(NC(=O)C(Cl)(Cl)Cl)c1ccccc1)OC` (stereo not drawn): the TGI in the test on HCT-15 colon, in the test on SF-295 CNS, with KM12 colon, in the test on NCI-H522 lung, in the test on A549 NSCLC and in the test with SN12C renal was greater than 100 µM in each case. Also, the TGI with COLO 205 colon, in the test on HS 578T breast, in the test with U251 CNS, in the test on LOX IMVI melanoma, in the test on SK-MEL-5 melanoma and with SF-268 CNS was greater than 100 µM throughout. The TGI with SK-MEL-2 melanoma, with NCI-H226 lung, in the test on HT29 colon, in the test with SNB-19 CNS, in the test with RPMI-8226 leukemia and in the test on PC-3 prostate was greater than 100 µM in each case.

With `O=C(O)CN1CCN2CCCCCCCCN(CC1)CCN(CC(=O)O)CC2`, the TGI in the test with CCRF-CEM leukemia, with HCT-15 colon, with SF-295 CNS, in the test on KM12 colon, in the test on NCI-H522 lung and in the test with A549 NSCLC was greater than 100 µM each time. For the same compound, the TGI with SN12C renal, in the test on COLO 205 colon, with HS 578T breast, in the test with U251 CNS, with LOX IMVI melanoma and with SK-MEL-5 melanoma was greater than 100 µM throughout. For the same compound, the TGI with SK-MEL-2 melanoma, with NCI-H226 lung, with HT29 colon, in the test with SNB-19 CNS, in the test on RPMI-8226 leukemia and with PC-3 prostate was greater than 100 µM in each case.

Regarding `COc1ccc(CC2Cc3ccccc3CC(=O)N2)cc1OC` (stereo not drawn), the TGI with CCRF-CEM leukemia, in the test on HCT-15 colon, in the test on SF-295 CNS, in the test on KM12 colon, with A549 NSCLC and in the test on SN12C renal was greater than 100 µM throughout. The TGI with COLO 205 colon is greater than 100 µM; in the test with HS 578T breast, greater than 100 µM; in the test on U251 CNS, greater than 100 µM; in the test on LOX IMVI melanoma, greater than 100 µM; in the test with SK-MEL-5 melanoma it was 54.1 µM; in the test on SK-MEL-2 melanoma it was greater than 100 µM. Moreover, the TGI in the test with NCI-H226 lung, in the test on HT29 colon, in the test with SR leukemia, with SNB-19 CNS and with PC-3 prostate was greater than 100 µM in each case.

`CC(C)CC(C#CCCOC(=O)c1ccccc1)OC(=O)c1ccccc1` (stereo not drawn): the TGI with CCRF-CEM leukemia, in the test with HCT-15 colon, in the test on SF-295 CNS, with KM12 colon, with A549 NSCLC and with SN12C renal was greater than 10 µM throughout. The TGI in the test on HS 578T breast, with U251 CNS, in the test on LOX IMVI melanoma, in the test on SK-MEL-5 melanoma, in the test with SF-268 CNS and in the test on SK-MEL-2 melanoma was greater than 10 µM in each case. For the same compound, the TGI with NCI-H226 lung, in the test with HT29 colon, in the test on SR leukemia, in the test on SNB-19 CNS and with PC-3 prostate was greater than 10 µM throughout.

Consider `Cc1cn(C(CO)OC(CO)CN(O)C2C3CC4CC(C3)CC2C4)c(=O)[nH]c1=O` (stereo not drawn), for which the TGI in the test with HCT-15 colon, in the test on SF-295 CNS, in the test with KM12 colon, in the test with A549 NSCLC, in the test on SN12C renal and in the test with COLO 205 colon was greater than 100 µM each time. Besides, the TGI in the test with HS 578T breast, in the test on U251 CNS, in the test on SK-MEL-5 melanoma, with SF-268 CNS, with SK-MEL-2 melanoma and in the test on NCI-H226 lung was greater than 100 µM each time. Further, the TGI in the test with HT29 colon, in the test on SR leukemia, with SNB-19 CNS, with RPMI-8226 leukemia and in the test on PC-3 prostate was greater than 100 µM each time.

The values above are taken from PubChem BioAssay (NCI).
